“And” between values parts separate entries of the source, which are not always exact repeats. Equal values may be shown once.
Details: Gas, Buoyancy - hydrostatic balance with magnetic suspension - two sinkers

[He] [helium]
Details | mass density
323.15 K, 4247.2 kPa | 6.2127 kg/m3
323.15 K, 4247.3 kPa | 6.2128 kg/m3 and 6.2127 kg/m3
323.15 K, 4851.3 kPa | 7.0783 kg/m3 and 7.0787 kg/m3 and 7.0785 kg/m3
323.15 K, 4851.4 kPa | 7.0788 kg/m3
323.15 K, 7550.9 kPa | 10.893 kg/m3
323.15 K, 7551 kPa | 10.8932 kg/m3 and 10.8928 kg/m3 and 10.8929 kg/m3
323.15 K, 7816.5 kPa | 11.2639 kg/m3
323.15 K, 7816.6 kPa | 11.264 kg/m3 and 11.2637 kg/m3
323.15 K, 11516 kPa | 16.3444 kg/m3 and 16.3445 kg/m3
323.15 K, 11561 kPa | 16.4063 kg/m3 and 16.4048 kg/m3
323.15 K, 15406 kPa | 21.5262 kg/m3 and 21.5263 kg/m3 and 21.5265 kg/m3
323.15 K, 15457 kPa | 21.5934 kg/m3 and 21.5932 kg/m3
323.15 K, 15458 kPa | 21.5942 kg/m3
323.15 K, 18569 kPa | 25.6255 kg/m3 and 25.6259 kg/m3
323.15 K, 18570 kPa | 25.6261 kg/m3 and 25.6263 kg/m3
323.15 K, 19211 kPa | 26.4456 kg/m3
323.15 K, 19212 kPa | 26.4466 kg/m3 and 26.446 kg/m3
323.15 K, 24300 kPa | 32.8067 kg/m3
323.15 K, 24301 kPa | 32.8072 kg/m3 and 32.807 kg/m3 and 32.8069 kg/m3
323.15 K, 25287 kPa | 34.0129 kg/m3 and 34.0124 kg/m3
323.15 K, 25288 kPa | 34.0134 kg/m3
323.15 K, 25289 kPa | 34.0147 kg/m3
323.15 K, 30738 kPa | 40.5213 kg/m3
323.15 K, 30739 kPa | 40.522 kg/m3
323.15 K, 30740 kPa | 40.5237 kg/m3 and 40.5227 kg/m3
323.15 K, 32137 kPa | 42.1508 kg/m3
323.15 K, 32138 kPa | 42.1518 kg/m3 and 42.1514 kg/m3
323.15 K, 32139 kPa | 42.1524 kg/m3
323.15 K, 37733 kPa | 48.5152 kg/m3
323.15 K, 37734 kPa | 48.5163 kg/m3
323.15 K, 37735 kPa | 48.5178 kg/m3
323.15 K, 37736 kPa | 48.5195 kg/m3
323.15 K, 37959 kPa | 48.7675 kg/m3
323.15 K, 37960 kPa | 48.7683 kg/m3 and 48.7679 kg/m3
323.15 K, 37961 kPa | 48.7698 kg/m3
350 K, 4685.1 kPa | 6.3268 kg/m3 and 6.3265 kg/m3
350 K, 4685.2 kPa | 6.3269 kg/m3 and 6.3267 kg/m3
350 K, 7452.5 kPa | 9.9569 kg/m3 and 9.9566 kg/m3 and 9.9568 kg/m3
350 K, 11158 kPa | 14.7003 kg/m3 and 14.7004 kg/m3 and 14.7008 kg/m3
350 K, 15078 kPa | 19.5787 kg/m3 and 19.579 kg/m3 and 19.5788 kg/m3
350 K, 15079 kPa | 19.5795 kg/m3
350 K, 18991 kPa | 24.3127 kg/m3 and 24.3128 kg/m3
350 K, 18992 kPa | 24.313 kg/m3 and 24.3135 kg/m3
350 K, 24052 kPa | 30.2468 kg/m3 [middle of 4 runs]
350 K, 30655 kPa | 37.6887 kg/m3
350 K, 30656 kPa | 37.6893 kg/m3 and 37.6888 kg/m3
350 K, 30658 kPa | 37.6913 kg/m3
350 K, 37804 kPa | 45.3924 kg/m3
350 K, 37805 kPa | 45.3931 kg/m3
350 K, 37806 kPa | 45.3936 kg/m3 and 45.3946 kg/m3
375 K, 4669.4 kPa | 5.8931 kg/m3 and 5.893 kg/m3 and 5.8932 kg/m3
375 K, 7673.3 kPa | 9.581 kg/m3 and 9.5809 kg/m3
375 K, 7673.4 kPa | 9.5815 kg/m3 and 9.5814 kg/m3
375 K, 7673.5 kPa | 9.5816 kg/m3
375 K, 11339 kPa | 13.9783 kg/m3 and 13.9779 kg/m3 and 13.9781 kg/m3
375 K, 14992 kPa | 18.2509 kg/m3 and 18.2507 kg/m3
375 K, 14993 kPa | 18.2512 kg/m3 and 18.2509 kg/m3
375 K, 19144 kPa | 22.9816 kg/m3 and 22.9811 kg/m3 and 22.981 kg/m3
375 K, 19145 kPa | 22.9817 kg/m3 and 22.9816 kg/m3
375 K, 24590 kPa | 28.996 kg/m3
375 K, 24591 kPa | 28.9965 kg/m3 and 28.9964 kg/m3 and 28.9966 kg/m3
375 K, 30460 kPa | 35.251 kg/m3
375 K, 30461 kPa | 35.2518 kg/m3 and 35.2512 kg/m3
375 K, 30462 kPa | 35.2524 kg/m3
375 K, 30463 kPa | 35.2534 kg/m3
375 K, 37969 kPa | 42.9318 kg/m3
375 K, 37970 kPa | 42.9322 kg/m3
375 K, 37971 kPa | 42.9332 kg/m3
375 K, 37972 kPa | 42.9339 kg/m3
375 K, 37973 kPa | 42.9352 kg/m3
400 K, 5058.3 kPa | 5.9844 kg/m3 [middle of 4 runs]
400 K, 7571.3 kPa | 8.8831 kg/m3 and 8.8829 kg/m3
400 K, 7571.4 kPa | 8.883 kg/m3 and 8.8833 kg/m3
400 K, 11460 kPa | 13.2766 kg/m3 and 13.2769 kg/m3 and 13.2767 kg/m3
400 K, 14777 kPa | 16.9377 kg/m3 [middle of 4 runs]
400 K, 19142 kPa | 21.6423 kg/m3 and 21.6418 kg/m3 and 21.6416 kg/m3
400 K, 19143 kPa | 21.6425 kg/m3
400 K, 23882 kPa | 26.6105 kg/m3
400 K, 23883 kPa | 26.6111 kg/m3
400 K, 23884 kPa | 26.6117 kg/m3 and 26.6114 kg/m3
400 K, 29989 kPa | 32.8083 kg/m3
400 K, 29990 kPa | 32.8093 kg/m3 and 32.8086 kg/m3
400 K, 29991 kPa | 32.8101 kg/m3
400 K, 37939 kPa | 40.5581 kg/m3
400 K, 37940 kPa | 40.5595 kg/m3
400 K, 37941 kPa | 40.56 kg/m3
400 K, 37942 kPa | 40.5606 kg/m3
425 K, 7875.4 kPa | 8.7027 kg/m3
425 K, 7875.6 kPa | 8.703 kg/m3
425 K, 7875.7 kPa | 8.703 kg/m3
425 K, 7875.8 kPa | 8.7031 kg/m3
425 K, 11516 kPa | 12.586 kg/m3 and 12.5859 kg/m3
425 K, 11517 kPa | 12.5867 kg/m3 and 12.5863 kg/m3
425 K, 15540 kPa | 16.7803 kg/m3
425 K, 15541 kPa | 16.7806 kg/m3 and 16.7809 kg/m3
425 K, 19133 kPa | 20.4427 kg/m3 and 20.4422 kg/m3
425 K, 19134 kPa | 20.4431 kg/m3
425 K, 25118 kPa | 26.3791 kg/m3
425 K, 25119 kPa | 26.3797 kg/m3
425 K, 25120 kPa | 26.3801 kg/m3 and 26.3808 kg/m3
425 K, 31604 kPa | 32.5927 kg/m3
425 K, 31605 kPa | 32.5929 kg/m3
425 K, 31606 kPa | 32.5939 kg/m3
425 K, 31607 kPa | 32.5953 kg/m3
425 K, 37906 kPa | 38.4268 kg/m3
425 K, 37908 kPa | 38.4278 kg/m3
425 K, 37909 kPa | 38.4293 kg/m3
425 K, 37913 kPa | 38.4326 kg/m3
450 K, 4775.3 kPa | 5.0371 kg/m3
450 K, 4775.4 kPa | 5.0373 kg/m3 and 5.0374 kg/m3
450 K, 7655.9 kPa | 8.0083 kg/m3
450 K, 7656 kPa | 8.0084 kg/m3 and 8.0085 kg/m3
450 K, 11907 kPa | 12.3041 kg/m3 [middle of 4 runs]
450 K, 15358 kPa | 15.7171 kg/m3 [middle of 4 runs]
450 K, 18965 kPa | 19.2155 kg/m3
450 K, 18966 kPa | 19.2158 kg/m3 and 19.2164 kg/m3 and 19.2154 kg/m3
450 K, 24940 kPa | 24.8633 kg/m3 and 24.8624 kg/m3
450 K, 24941 kPa | 24.8636 kg/m3
450 K, 24943 kPa | 24.8658 kg/m3
450 K, 31394 kPa | 30.7672 kg/m3
450 K, 31395 kPa | 30.7683 kg/m3
450 K, 31396 kPa | 30.7693 kg/m3
450 K, 31398 kPa | 30.7705 kg/m3
450 K, 37608 kPa | 36.2728 kg/m3
450 K, 37610 kPa | 36.274 kg/m3
450 K, 37611 kPa | 36.2757 kg/m3
450 K, 37613 kPa | 36.2772 kg/m3
475 K, 4812.4 kPa | 4.813 kg/m3 and 4.8133 kg/m3 and 4.8131 kg/m3
475 K, 7937.7 kPa | 7.8707 kg/m3
475 K, 7937.9 kPa | 7.871 kg/m3
475 K, 7938 kPa | 7.8709 kg/m3
475 K, 11474 kPa | 11.2698 kg/m3 and 11.2694 kg/m3
475 K, 11475 kPa | 11.2697 kg/m3 and 11.2696 kg/m3
475 K, 15102 kPa | 14.6905 kg/m3 and 14.6903 kg/m3 and 14.69 kg/m3
475 K, 15103 kPa | 14.6908 kg/m3
475 K, 18995 kPa | 18.29 kg/m3 and 18.2901 kg/m3 and 18.2895 kg/m3
475 K, 18996 kPa | 18.2908 kg/m3
475 K, 25698 kPa | 24.3237 kg/m3 and 24.3233 kg/m3
475 K, 25699 kPa | 24.3246 kg/m3
475 K, 31116 kPa | 29.0563 kg/m3
475 K, 31118 kPa | 29.0576 kg/m3
475 K, 31119 kPa | 29.0583 kg/m3
475 K, 31122 kPa | 29.0604 kg/m3
475 K, 37990 kPa | 34.8852 kg/m3
475 K, 37992 kPa | 34.8873 kg/m3
475 K, 37994 kPa | 34.8888 kg/m3
475 K, 37996 kPa | 34.891 kg/m3
499.99 K, 37868 kPa | 33.2206 kg/m3
500 K, 4928 kPa | 4.6849 kg/m3 and 4.6846 kg/m3 and 4.685 kg/m3
500 K, 7887.1 kPa | 7.4404 kg/m3 and 7.4403 kg/m3
500 K, 7887.3 kPa | 7.4406 kg/m3
500 K, 11580 kPa | 10.8213 kg/m3 and 10.8221 kg/m3 and 10.8212 kg/m3
500 K, 11581 kPa | 10.8215 kg/m3
500 K, 15421 kPa | 14.2721 kg/m3 and 14.2719 kg/m3
500 K, 15422 kPa | 14.2732 kg/m3 and 14.2727 kg/m3
500 K, 19581 kPa | 17.9371 kg/m3 and 17.9369 kg/m3
500 K, 19583 kPa | 17.9388 kg/m3
500 K, 25162 kPa | 22.7413 kg/m3
500 K, 25163 kPa | 22.7419 kg/m3
500 K, 25166 kPa | 22.7445 kg/m3
500 K, 30651 kPa | 27.3437 kg/m3
500 K, 30652 kPa | 27.3446 kg/m3
500 K, 30653 kPa | 27.3454 kg/m3
500 K, 30654 kPa | 27.3459 kg/m3
500 K, 37864 kPa | 33.2185 kg/m3
500 K, 37865 kPa | 33.2203 kg/m3
500 K, 37870 kPa | 33.2239 kg/m3
